Data reported in patent US20240245617A1, “LIPID-BASED TOPICAL INJECTION FORMULATIONS” (Beijing Jitai Pharmaceutical Technology Co., Ltd., priority 2022, published 2024).

System: C57BL/6 mice
Assay: In vivo bioluminescence after intravenous administration of lipid nanoparticles encapsulating luciferase mRNA
Conditions: 0.5 mg/kg mRNA, liver
Description: The delivery effect and safety of nanoparticles encapsulating luciferase mRNA (Trilink, L-7202) in mice were evaluated. The test mice were SPF-grade C57BL/6 mice, female, 6-8 weeks old, weighing 18-22 g, and were purchased from SPF (Beijing) Biotechnology Co., Ltd. All animals were acclimatized for more than 7 days prior to the experiment, and had free access to food and water during the experiment. The conditions include alternating light and dark for 12/12 h, the indoor temperature of 20-26° C. and the humidity of 40-70%. The mice were randomly grouped. The lipid nanoparticles encapsulating luciferase mRNA prepared above were injected into mice by intravenous administration at a single dose of 0.5 mg/kg mRNA, and the mice were subjected to in vivo bioluminescence assay using a Small Animal In Vivo Imaging System (IVIS LUMINA III, purchased from PerkinElmer) at 6 h after administration. The assay was performed as follows: D-luciferin solution was prepared in saline at a concentration of 15 mg/mL, and each mouse was given the substrate by intraperitoneal injection. At ten minutes after administration of the substrate, the mice were anesthetized in an anesthesia chamber with isoflurane at a concentration of 2.5%. […] Data acquisition and analysis were performed on the liver.
The in vivo delivery efficiency of lipid nanoparticle carriers was expressed as the mean values of fluorescence intensity and total photon count in different animals within the same subject group, as shown in Table 4. Higher values of fluorescence intensity and total photon count indicate higher in vivo delivery efficiency of this mRNA fragment by lipid nanoparticles. The lipid nanoparticles containing the cationic lipids of the present disclosure have good in vivo delivery efficiency and mainly target the liver.

SMILES | Total photon count in vivo at 6 hours after administration (Total Flux)
CCCCCCCCOC(=O)C(C)(C)CCCCCC(CCCCCC(C)(C)C(=O)OCCCCCCCC)OC(=O)CCN(C)C [Compound 2] | 4.23E+08
CCCCCCCCCOC(=O)C(C)(C)CCCCCC(CCCCCC(C)(C)C(=O)OCCCCCCCCC)OC(=O)CCN(C)C [Compound 3] | 1.75E+09
CC(C)CCCC(C)CCOC(=O)C(C)(C)CCCCCC(CCCCCC(C)(C)C(=O)OCCC(C)CCCC(C)C)OC(=O)CCN(C)C (centres unmarked) [Compound 6] | 2.25E+09
CC/C=C\CCCCCOC(=O)C(C)(C)CCCCCC(CCCCCC(C)(C)C(=O)OCCCCC/C=C\CC)OC(=O)CCN(C)C [Compound 7] | 1.16E+08
CCCCCCCCCCNC(=O)C(C)(C)CCCCCC(CCCCCC(C)(C)C(=O)NCCCCCCCCCC)OC(=O)CCN(C)C [Compound 8] | 3.26E+07
CCCCCCCCCNC(=O)C(C)(C)CCCCCC(CCCCCC(C)(C)C(=O)NCCCCCCCCC)OC(=O)CCN(C)C [Compound 9] | 6.05E+06
CCCCCCCCCCCCNC(=O)C(C)(C)CCCCCC(CCCCCC(C)(C)C(=O)NCCCCCCCCCCCC)OC(=O)CCN(C)C [Compound 10] | 1.26E+09
CCCCCCCCC(CCCCCCCC)NC(=O)C(C)(C)CCCCCC(CCCCCC(C)(C)C(=O)NC(CCCCCCCC)CCCCCCCC)OC(=O)CCN(C)C [Compound 11] | 4.42E+06
CCCCCCCCCN(CCCCCCCCC)C(=O)C(C)(C)CCCCCC(CCCCCC(C)(C)C(=O)N(CCCCCCCCC)CCCCCCCCC)OC(=O)CCN(C)C [Compound 12] | 1.10E+09
CCCCCCCCCCOC(=O)C(C)(C)CCCCCC(CCCCCC(C)(C)C(=O)OCCCCCCCCCC)OC(=O)CN(C)C [Compound 17] | 6.77E+05
CCCCCCCCCCOC(=O)C(C)(C)CCCCCC(CCCCCC(C)(C)C(=O)OCCCCCCCCCC)OC(=O)CCCN(C)C [Compound 18] | 1.14E+10
CCCCCCCCOC(=O)C(C)(C)CCCCCC(CCCCCC(C)(C)C(=O)OCCCCCCCC)OC(=O)CCCN(C)C [Compound 19] | 3.20E+09
CCCCCCCCCOC(=O)C(C)(C)CCCCCC(CCCCCC(C)(C)C(=O)OCCCCCCCCC)OC(=O)CCCN(C)C [Compound 20] | 2.40E+10
CCCCCCCC#CCOC(=O)C(C)(C)CCCCCC(CCCCCC(C)(C)C(=O)OCC#CCCCCCCC)OC(=O)CCCN(C)C [Compound 23] | 1.43E+10
CCCCC#CCCCCOC(=O)C(C)(C)CCCCCC(CCCCCC(C)(C)C(=O)OCCCCC#CCCCC)OC(=O)CCCN(C)C [Compound 25] | 1.89E+08
CCCCCCC/C=C\COC(=O)C(C)(C)CCCCCC(CCCCCC(C)(C)C(=O)OC/C=C\CCCCCCC)OC(=O)CCCN(C)C [Compound 26] | >4.00E+10
CCCCCC/C=C\CCOC(=O)C(C)(C)CCCCCC(CCCCCC(C)(C)C(=O)OCC/C=C\CCCCCC)OC(=O)CCCN(C)C [Compound 27] | 2.20E+10
CCCCCCCCCOC(=O)C(C)(C)CCCCCC(CCCCCC(C)(C)C(=O)OCCCCCCCCC)OC(=O)CCCCCN(C)C [Compound 32] | 7.30E+09
CCCCCCCCCCSC(=O)C(C)(C)CCCCCC(CCCCCC(C)(C)C(=O)SCCCCCCCCCC)OC(=O)CCN(C)C [Compound 33] | 2.12E+08
CCCCCCCCCCSC(=O)C(C)(C)CCCCCC(CCCCCC(C)(C)C(=O)SCCCCCCCCCC)OC(=O)CCCN(C)C [Compound 34] | 1.26E+10
CCCCCCCCCCSC(=O)C(C)(C)CCCCCC(CCCCCC(C)(C)C(=O)SCCCCCCCCCC)OC(=O)CCCCCN(C)C [Compound 36] | 4.84E+09
CCCCCCCCCSC(=O)C(C)(C)CCCCCC(CCCCCC(C)(C)C(=O)SCCCCCCCCC)OC(=O)CCCN(C)C [Compound 37] | 7.88E+09
CCCCCCCCCCSC(=O)C(C)(C)CCCCCC(CCCCCC(C)(C)C(=O)OCCCCCCCCC)OC(=O)CCCN(C)C (centres unmarked) [Compound 40] | 4.22E+09
CCCCCCCCCOC(=O)C(C)(C)CCCCCC(CCCCCC(C)(C)C(=O)SCCCCCCCCC)OC(=O)CCCN(C)C (centres unmarked) [Compound 41] | 2.19E+10

SMILES | Total photon count in vivo at 6 hours after administration (Total Flux)
CCCCCCC#CCOC(=O)C(C)(C)CCCCCC(CCCCCC(C)(C)C(=O)OCCCCCCCCC)OC(=O)CCCN(C)C (centres unmarked) [Compound 42] | 5.32E+09
CCCCCCCCCOC(=O)C(C)(C)CCCCCC(CCCCCC(C)(C)C(=O)OCC(CCCCC)CCCCCCC)OC(=O)CCCN(C)C (centres unmarked) [Compound 46] | >4.00E+10
CCCCCCCCCCOC(=O)C(C)(C)CCCCCC(CCCCCC(C)(C)C(=O)OCCCCCCCCCC)OC(=O)CCN1CCOCC1 [Compound 90] | 1.04E+07
CCCCCCCCCCOC(=O)C(C)(C)CCCCCC(CCCCCC(C)(C)C(=O)OCCCCCCCCCC)OC(=O)CN1CCOCC1 [Compound 91] | 1.29E+06
CCCCCCCCCCOC(=O)C(C)(C)CCCCCC(CCCCCC(C)(C)C(=O)OCCCCCCCCCC)OC(=O)CCN1CCCC1 [Compound 92] | 2.13E+09
CCCCCCC/C=C\COC(=O)CC(C)(C)CCCCC(CCCCC(C)(C)CC(=O)OCC(CCCCC)CCCCCCC)OC(=O)CCCN(C)C (centres unmarked) [Compound 98] | 2.12E+10
CCCCCCCCOC(=O)C(C)(C)CCCCCC(CCCCCC(C)(C)C(=O)OCCCCCCCC)OC(=O)C1CCN(C)CC1 [Compound 100] | 1.18E+10
CCCCCCCCOC(=O)C(C)(C)CCCCCC(CCCCCC(C)(C)C(=O)OCCCCCCCC)OC(=O)C1CCN(C(C)C)CC1 [Compound 101] | 5.19E+09
CCCCCCCCCOC(=O)C(C)(C)CCCCCC(CCCCCC(C)(C)C(=O)OCCCCCCCCC)OC(=O)C1CCN(C)CC1 [Compound 102] | 2.03E+10
CCCCCCCCCOC(=O)C(C)(C)CCCCCC(CCCCCC(C)(C)C(=O)OCCCCCCCCC)OC(=O)C1CCN(C(C)C)CC1 [Compound 103] | 5.69E+09
CCCCCCCCCCSC(=O)C(C)(C)CCCCCC(CCCCCC(C)(C)C(=O)SCCCCCCCCCC)OC(=O)C1CCN(C)CC1 [Compound 104] | 2.61E+10
CCCCCCCCCCSC(=O)C(C)(C)CCCCCC(CCCCCC(C)(C)C(=O)SCCCCCCCCCC)OC(=O)C1CCN(C(C)C)CC1 [Compound 105] | 3.33E+09
CCCCCCCCCSC(=O)C(C)(C)CCCCCC(CCCCCC(C)(C)C(=O)SCCCCCCCCC)OC(=O)C1CCN(C)CC1 [Compound 106] | 1.85E+10
CCCCCCCCCSC(=O)C(C)(C)CCCCCC(CCCCCC(C)(C)C(=O)SCCCCCCCCC)OC(=O)C1CCN(C(C)C)CC1 [Compound 107] | 1.36E+10
CCCCCCCCCSC(=O)C(C)(C)CCCCCC(CCCCCC(C)(C)C(=O)SCCCCCCCCC)OC(=O)CC1CCN(C)CC1 [Compound 108] | 1.21E+10
CCCCCCCCCSC(=O)C(C)(C)CCCCCC(CCCCCC(C)(C)C(=O)SCCCCCCCCC)OC(=O)CC1CCN(CC)CC1 [Compound 109] | 1.32E+10
CCCCCCCCCOC(=O)C(C)(C)CCCCCC(CCCCCC(C)(C)C(=O)OCC(CCCCC)CCCCCCC)OC(=O)CC1CCN(C)CC1 (centres unmarked) [Compound 111] | 1.79E+10
CCCCCCCCCSC(=O)C(C)(C)CCCCCC(CCCCCC(C)(C)C(=O)OCC(CCCCC)CCCCCCC)OC(=O)CC1CCN(C)CC1 (centres unmarked) [Compound 112] | 3.53E+10
CCCCCCCC#CCOC(=O)C(C)(C)CCCCCC(CCCCCC(C)(C)C(=O)OCCCC(CCCCC)CCCCC)OC(=O)CCCN(C)C (centres unmarked) [Compound 115] | 2.56E+10
CCCCCCCC#CCOC(=O)C(C)(C)CCCCCC(CCCCCC(C)(C)C(=O)OCC(CCCCC)CCCCCCC)OC(=O)CCCN(C)C (centres unmarked) [Compound 116] | >4.00E+10
CCCCC(CC#CCOC(=O)C(C)(C)CCCCCC(CCCCCC(C)(C)C(=O)OCC#CCC(CCCC)CCCC)OC(=O)CCCN(C)C)CCCC [Compound 117] | 4.48E+09
CCCCCCCCCOC(=O)C(C)(C)CCCCCC(CCCCCC(C)(C)C(=O)OCC#CC(CCCCCC)CCCCCC)OC(=O)CCCN(C)C (centres unmarked) [Compound 118] | 3.14E+10
CCCCCCCCCOC(=O)C(C)(C)CCCCC(CCCCC(C)(C)C(=O)OCC(CCCCC)CCCCCCC)OC(=O)CCCN(C)C (centres unmarked) [Compound 122] | >4.00E+10
